Test systems include UACC-62 melanoma; MDA-MB-435; HS 578T breast; A498 renal; UO-31 renal; HOP-62 NSCLC; NCI/ADR-RES ovarian; SN12C renal; U251 CNS; HT29 colon.
What all share (assay): NCI anticancer screen, dose series, 48 h

Each structure is given as a SMILES string.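 Where inhibition never reached the appropriate level, the endpoint shown equals the highest concentration tested. Otherwise, values were interpolated linearly from a five-concentration, 48-hour dose response in 96-well plates. Here, GI50 denotes the concentration required for 50% inhibition of growth. TGI marks complete inhibition of growth.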

As for `O=C(/C=C/c1cc2ccccc2[nH]c1=O)/C=C/c1cc2ccccc2[nH]c1=O`, the GI50 in the experiment with UACC-62 melanoma was 16.9 µM; with HS 578T breast, over 39.9 µM; with A498 renal, over 50.1 µM; in the experiment on UO-31 renal, over 100 µM; with HOP-62 NSCLC, 14.5 µM; in the experiment on NCI/ADR-RES ovarian it was over 78 µM. The GI50 in the experiment on SN12C renal was 12.6 µM; in the experiment on U251 CNS it was 4.53 µM. In addition, the TGI in the experiment on UACC-62 melanoma is 97.8 µM; with MDA-MB-435, over 20 µM; in the experiment with HS 578T breast, over 100 µM; in the experiment on A498 renal, over 100 µM; with UO-31 renal, over 100 µM; with HOP-62 NSCLC, over 76.9 µM. The TGI in the experiment with NCI/ADR-RES ovarian is over 100 µM; in the experiment with SN12C renal, over 86.6 µM; in the experiment on U251 CNS it was 12.1 µM.
Regarding `N#CC1(C(N)=O)C(c2ccc(Cl)cc2)CC(=O)CC1c1ccc(Cl)cc1` (stereo not drawn), the GI50 with UACC-62 melanoma was 13.6 µM; in the experiment with MDA-MB-435, 16.3 µM; with HT29 colon it was 15.5 µM; with HS 578T breast it was 23.3 µM; with A498 renal, 14.7 µM; with UO-31 renal, 16.3 µM. Also, the results for the GI50 in the experiment with NCI/ADR-RES ovarian, in the experiment on SN12C renal and in the experiment on U251 CNS were 39.7 µM, 19.4 µM and 16.6 µM, respectively. In addition, the TGI turned out to be 27.2 µM with UACC-62 melanoma; 33.2 µM with MDA-MB-435; 29.5 µM in the experiment with HT29 colon; 61.6 µM in the experiment with HS 578T breast; 27.8 µM with A498 renal; 32 µM in the experiment on UO-31 renal. Besides, the TGI in the experiment with NCI/ADR-RES ovarian was over 100 µM; with SN12C renal, 35.3 µM; with U251 CNS, 31.6 µM.
Regarding `CCCCCCCCCCCCCCCCCC[n+]1ccc2c(C)c3c(c(C)c2c1)c1cc(O)ccc1n3CC`, the GI50 was 1.29 µM with UACC-62 melanoma; 1.14 µM in the experiment on HT29 colon; 2.23 µM with HS 578T breast; 1.19 µM with A498 renal; 3.39 µM with UO-31 renal; 2.66 µM with HOP-62 NSCLC. The results for the GI50 in the experiment on NCI/ADR-RES ovarian and in the experiment on SN12C renal were 10.8 µM and 1.79 µM, respectively. For the same compound, the TGI came out at 3.38 µM with UACC-62 melanoma; 15.2 µM with HT29 colon; 7.79 µM in the experiment on HS 578T breast; 3.86 µM in the experiment on A498 renal; 18.7 µM in the experiment with UO-31 renal; 10.4 µM in the experiment with HOP-62 NSCLC. In addition, the TGI in the experiment on NCI/ADR-RES ovarian came out at 39 µM; with SN12C renal, 6.08 µM.
Consider `CN[C@@H](C)C(=O)N[C@H](C(=O)N1CCC[C@H]1C(=O)Nc1sc(-c2ncco2)nc1-c1ccccc1)C1CCCCC1`, for which the GI50 in the experiment on UACC-62 melanoma is 18.6 µM; in the experiment with MDA-MB-435, 26.3 µM; with HT29 colon, 28.6 µM; with HS 578T breast it was 50 µM; in the experiment with A498 renal it was 26.6 µM; with UO-31 renal, 32.1 µM. Further, the GI50 was over 92.2 µM with HOP-62 NSCLC, 27.4 µM in the experiment with NCI/ADR-RES ovarian, 38.9 µM in the experiment with SN12C renal and 26.9 µM with U251 CNS. Also, the TGI with UACC-62 melanoma was 39.2 µM; in the experiment on MDA-MB-435 it was over 87.9 µM; with HT29 colon, 68.6 µM; in the experiment on HS 578T breast, over 100 µM; in the experiment on A498 renal, over 88 µM; in the experiment on UO-31 renal, over 68.9 µM. Also, the TGI with HOP-62 NSCLC is over 100 µM; in the experiment with NCI/ADR-RES ovarian, over 83.2 µM; with SN12C renal, over 71.9 µM; in the experiment with U251 CNS it was over 77.7 µM.
`O=C1NC(=O)C(N2C(=O)c3ccccc3C2=O)CC1O` (stereo not drawn): the GI50 in the experiment with UACC-62 melanoma, in the experiment on MDA-MB-435, in the experiment with HT29 colon, in the experiment with HS 578T breast, in the experiment with A498 renal and in the experiment with UO-31 renal was over 100 µM each time. Also, the GI50 in the experiment with HOP-62 NSCLC, with NCI/ADR-RES ovarian, in the experiment with SN12C renal and in the experiment on U251 CNS was over 100 µM throughout. Moreover, the TGI in the experiment on UACC-62 melanoma, in the experiment on MDA-MB-435, with HT29 colon, with HS 578T breast, in the experiment on A498 renal and in the experiment with UO-31 renal was over 100 µM each time. For the same compound, the TGI in the experiment on HOP-62 NSCLC, in the experiment on NCI/ADR-RES ovarian, in the experiment with SN12C renal and in the experiment on U251 CNS was over 100 µM in each case.
In the case of `COc1cc(N2C(=O)[C@H](O)C2c2ccc(SC)cc2)cc(OC)c1OC` (stereo partly drawn), the GI50 in the experiment with UACC-62 melanoma was under 0.01 µM; in the experiment on HT29 colon it was under 0.01 µM; with HS 578T breast, under 0.01 µM; in the experiment with A498 renal, under 0.01 µM; in the experiment with HOP-62 NSCLC, under 0.01 µM; in the experiment on NCI/ADR-RES ovarian, 0.0166 µM. The GI50 was 0.0482 µM in the experiment on SN12C renal and under 0.01 µM in the experiment with U251 CNS. Further, the TGI is over 100 µM with UACC-62 melanoma; 0.0887 µM in the experiment on HT29 colon; over 100 µM with HS 578T breast; 0.0882 µM in the experiment on A498 renal; over 100 µM with HOP-62 NSCLC; over 100 µM in the experiment with NCI/ADR-RES ovarian. Besides, the TGI in the experiment with SN12C renal and with U251 CNS was over 100 µM throughout.
With `FC(F)(F)c1ccc(-c2cnc(-c3ncon3)nc2NC2CCCCCC2)cc1`, the GI50 in the experiment on UACC-62 melanoma is 48.6 µM; with MDA-MB-435, 71.3 µM; in the experiment with HT29 colon it was 34.7 µM; in the experiment with HS 578T breast, 32.1 µM; in the experiment on A498 renal, 42.9 µM; in the experiment on UO-31 renal, 26.4 µM. Besides, the GI50 in the experiment on HOP-62 NSCLC is 76.8 µM; in the experiment with NCI/ADR-RES ovarian, 35.3 µM; in the experiment on SN12C renal it was 21.4 µM. Besides, the TGI with UACC-62 melanoma, with MDA-MB-435, in the experiment with HT29 colon, with HS 578T breast, with A498 renal and in the experiment with UO-31 renal was over 100 µM throughout. In addition, the TGI is over 100 µM with HOP-62 NSCLC, over 100 µM with NCI/ADR-RES ovarian and 63 µM with SN12C renal.
With `CN(C)CCCn1c(=O)c2ccccc2c2ccccc21`, the GI50 in the experiment on UACC-62 melanoma was 17 µM; with MDA-MB-435, 11.8 µM; in the experiment on HT29 colon, 5.74 µM; in the experiment on HS 578T breast, 17.8 µM; in the experiment on A498 renal, 15.7 µM; in the experiment on HOP-62 NSCLC, 20.5 µM. Further, the GI50 is 10.9 µM in the experiment on NCI/ADR-RES ovarian, 16.9 µM in the experiment with SN12C renal and 13.8 µM in the experiment with U251 CNS. The TGI with UACC-62 melanoma was 33.6 µM; in the experiment with MDA-MB-435, 26.6 µM; in the experiment with HT29 colon it was 33.4 µM; with HS 578T breast, 49 µM; with A498 renal, 30.6 µM; with HOP-62 NSCLC, over 100 µM. Further, the values for the TGI in the experiment on NCI/ADR-RES ovarian, in the experiment with SN12C renal and in the experiment on U251 CNS were over 100 µM, over 100 µM and 78.5 µM, respectively.

(Values after PubChem BioAssay (NCI).)
